Test results from patent US20230028880A1, “CD38-BINDING AGENTS AND USES THEREOF” (Biohaven Therapeutics Ltd., priority 2019, published 2023).
Several values for one entry are separate records, joined by “and”; a condition that tells them apart may be missing. Identical values can stand only once.

Columns and labels:
Daudi cells [1] = assay: Ternary binding assay: recruitment of PE-labeled human IgG1k to Daudi cells (flow cytometry, MFI); type: cell-based; settings: duplicate columns
How it was run: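 Daudi cells, 100,000 per well, were suspended in flow buffer (1% BSA, 0.5 mM EDTA, PBS) containing 11.1 ug/mL PE-labeled human IgG1k and incubated with ½-log compound dilutions (8–12 concentrations) for 30 min at 37 °C. After two washes with 0.5% Tween 20 buffer, mean fluorescence was read by flow cytometry and fitted with a four-parameter variable-slope model.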

Daudi cells [2] = assay: Intraperitoneal lavage model: CFSE-labelled Daudi cells in SCID mice; type: in vivo; settings: I-17 1, 10, 30 mg/kg + IVIG 10 mg/mouse sub-Q, 16-18 hours (FIG. 9)
Experimental: On day 0 animals were weighed and randomized. Mice were assigned to different groups and treated as described below. CFSE labelled Daudi cells were prepared as follows:
• Reagents used: PBS (Sterile) • Quenching Buffer PBS+10% FBS • RPMI (no additives) no P/S; no FBS • Invitrogen—CellTrace CFSE Cell Proliferation Kit, for Flow Cytometry (Cat#C34570) • Warm the sterile PBS and all other media to 37 degree Celsius before use for all of the following procedures listed below. […]
After 16-18 hours the mice were sacrificed via CO2 asphyxiation and had their peritoneal cavity flushed with 5 mls of PBS with 1% BSA. Samples were processed and analyzed using IP Lavage Processing is described in 00765. Samples were evaluated for tumor cell counts. […]

Structure (SMILES): CCCCC[C@@H]1NC(=O)[C@H](CCCNC(=N)N)NC(=O)[C@H](C)NC(=O)CSC[C@@H](C(=O)NCCOCCOCCOCCOCCOCCOCCn2nnc3c2CCC2C(CC3)C2COC(=O)N2CCC(C(=O)NCC(=O)N[C@H](CCC(=O)N[C@H](CCC(=O)N[C@H](CCC(=O)O)C(=O)N[C@H](CCC(=O)N[C@H](CCC(=O)NCC(=O)NCC(=O)N[C@@H](CC(=O)O)C(=O)N[C@H]3CSSC[C@@H](C(=O)N[C@H](C(=O)O)[C@@H](C)O)NC(=O)[C@H](Cc4c[nH]c5ccccc45)NC(=O)[C@H](C(C)C)NC(=O)[C@H](CC(C)C)NC(=O)[C@H](CCC(=O)O)NC(=O)CNC(=O)[C@H](CC(C)C)NC(=O)[C@H](Cc4c[nH]cn4)NC(=O)[C@H](Cc4c[nH]c5ccccc45)NC(=O)[C@H](C)NC3=O)C(=O)O)C(=O)O)C(=O)O)C(=O)O)CC2)NC(=O)[C@H](CC(=O)O)NC(=O)[C@H](CCCCC)NC(=O)[C@H](Cc2ccc(-c3ccccc3)cc2)NC(=O)[C@H](CC(C)C)NC(=O)[C@H](C(C)C)NC(=O)CNC(=O)[C@H](CC(=O)O)NC(=O)[C@H](Cc2c[nH]cn2)NC(=O)[C@H](Cc2ccc(O)cc2)NC1=O (stereo partly drawn) [I-17]
- MFI, recruitment of PE-labeled human IgG1k to Daudi cells (Daudi cells [1]; compound 0.03 nM): 2516 and 2391
- MFI, recruitment of PE-labeled human IgG1k to Daudi cells (Daudi cells [1]; compound 0.1 nM): 2322 and 2622
- MFI, recruitment of PE-labeled human IgG1k to Daudi cells (Daudi cells [1]; compound 0.3 nM): 2387 and 2457
- MFI, recruitment of PE-labeled human IgG1k to Daudi cells (Daudi cells [1]; compound 1 nM): 3272 and 2451
- MFI, recruitment of PE-labeled human IgG1k to Daudi cells (Daudi cells [1]; compound 3 nM): 2516 and 2680
- MFI, recruitment of PE-labeled human IgG1k to Daudi cells (Daudi cells [1]; compound 10 nM): 7119 and 4086
- MFI, recruitment of PE-labeled human IgG1k to Daudi cells (Daudi cells [1]; compound 30 nM): 3869 and 5244
- MFI, recruitment of PE-labeled human IgG1k to Daudi cells (Daudi cells [1]; compound 100 nM): 7575 and 6333
- MFI, recruitment of PE-labeled human IgG1k to Daudi cells (Daudi cells [1]; compound 300 nM): 7514 and 8562
- MFI, recruitment of PE-labeled human IgG1k to Daudi cells (Daudi cells [1]; compound 1000 nM): 10015 and 9697
- MFI, recruitment of PE-labeled human IgG1k to Daudi cells (Daudi cells [1]; compound 3000 nM): 9069 and 9922
- number of CD38 expressing Daudi cells in intraperitoneal cavity (Daudi cells [2]): can effectively reduce the number of target cells
